# Laboratory results from patent US20090239898A1 (SCIENCOM LTD., priority 2003, published 2009).
# Experiments:
# semi-comatose patient = conditions: reverts when drug action subsides; cited from earlier work
# abnormal baboon = conditions: cited from earlier work
# [1] = tested on: patient after subarachnoid haemorrhage; test: Brain SPECT before and after zolpidem after subarachnoid haemorrhage (Example 4); assay type: in vivo, human; conditions: 1 hour after 10 mg zolpidem
# Parkinson's disease = conditions: in vivo; cited from earlier work
# [2] = tested on: patient after subarachnoid haemorrhage; test: Hearing and speech evaluation before and after zolpidem after subarachnoid haemorrhage (Example 4); assay type: in vivo, human
# Protocol: The patient was then examined for any changes in hearing. […] The patient was also evaluated by the speech therapist before and after zolpidem.
# [3] = tested on: patient with Ramsay-Hunt syndrome; test: Zolpidem therapy of Ramsay-Hunt syndrome (Example 3); assay type: in vivo, human
# Source text: On treatment, the following features improved. […] Also, as part of the syndrome they could not close their left eye. After zolpidem they could.
# [4] = tested on: patients with Spinocerebellar Ataxia Type 2; test: Clinical response to zolpidem in a family with Spinocerebellar Ataxia Type 2 (Example 2); assay type: in vivo, human
# Source text: There is currently no effective pharmacologic treatment for spinocerebellar ataxia. […] Spinocerebellar Ataxia Type 2 was confirmed by molecular analysis.
# [5] = tested on: patient who had suffered a stroke; test: Clinical observation after zolpidem in a stroke patient (Example 1); assay type: in vivo, human; conditions: 10 mg zolpidem
# Source text: They had suffered a stroke several years before and presented with left-sided paraplegia since the onset of their stroke. Their cognition was still normal but they had some aphasia and decreased proprioseption that was evident from their inability to use scissors with their right hand. The clinical and neurological features of the patient were unremarkable apart from the above.
smiles,measurement,setting,value
Cc1ccc(-c2nc3ccc(C)cn3c2CC(=O)N(C)C)cc1 [zolpidem],state of consciousness after drug application,semi-comatose patient,exits their permanent vegetative state
same,brain perfusion,abnormal baboon; brain-abnormal baboon,asymmetric increased perfusion
same,defect in the right parietal aspect of the brain,[1],remained unchanged
same,obsessive-compulsive symptoms (cessation of verbal iterations),Parkinson's disease,improved
same,symptoms of PD (akinesia and rigidity),Parkinson's disease,improved
same,hearing (pre and post-zolpidem audiograms),[2]; after 10 mg zolpidem,improved
same,sleepiness,[2]; after 10 mg zolpidem,slightly sleepy
same,speech ability,[2]; after 10 mg zolpidem,improved markedly
same,persistence of hearing and speech improvements,[2]; even after halving the zolpidem dose,remained for the duration of drug action
same,closing of left eye,[3]; after zolpidem,they could
same,drinking fluids,[3]; on zolpidem treatment,able to drink fluids directly from a cup
same,tonus of facial nerves,[3]; on zolpidem treatment,improved
same,time to clinical improvement,[4]; 10 mg zolpidem,≤ 1 h
same,patients improved clinically,"[4]; family of five patients, 10 mg zolpidem",four
same,"ataxia, intention tremor and titubation",[4]; patient P1,improved moderately
same,"ataxia, intention tremor and titubation",[4]; patient P2,improved
same,"ataxia, intention tremor and titubation",[4]; patient P3,improved moderately
same,clinical improvement,[4]; patient P4,no improvement
same,"ataxia, intention tremor and titubation",[4]; patient P5,slightly improved
same,clinical changes after zolpidem,[5],no marked clinical changes
same,ability to use scissors,[5]; for the next few hours until drug action subsided,able to use scissors
CN1C(=O)CN=C(c2ccccc2)c2cc(Cl)ccc21 [diazepam],state of consciousness after drug application,semi-comatose patient,not awakened
CCOC(=O)c1ncn2c1CN(C)C(=O)c1cc(F)ccc1-2 [flumazenil],effect on zolpidem-induced asymmetric perfusion pattern,abnormal baboon; abnormal baboon,attenuates the influence of zolpidem
